Results taken from patent US20210052582A1, “METHODS OF USE AND PHARMACEUTICAL COMPOSITIONS OF A SELECTIVE SYK INHIBITOR” (Portola Pharmaceuticals, Inc., priority 2018, published 2021).
Structures can show the parent of a compound that is named as a salt.

Tests used:
[1] = Dissolution study of HCl salt and free base in formulation buffer; assay type: physicochemical; conditions: for solubility (visual appearance): 10 mg/mL (1%) in pH 6, 10 mM citrate buffer, 1% PEG400, 1% Glycerin, 0.3% NaCl, 0.05% PS80
Procedure: A dissolution study was performed in which the HCl salt or the free base were added to the following formulation buffer at a concentration of 10 mg/mL (1%): • pH 6, 10 mM citrate buffer, 1% PEG400, 1% Glycerin, 0.3% NaCl, 0.05% PS80.
The pH was increased for soluble samples to better understand their properties. The appearance of the samples was visually observed for clarity or cloudiness. […] The free base was not soluble.

[2] = tested on: Mice sensitized with short ragweed allergen; test: Murine model of allergic conjunctivitis (conjunctival allergen challenge, short ragweed); assay type: in vivo, mouse
Procedure: Mice were sensitized with subcutaneously injected short ragweed allergen (day 1, day 11), and underwent conjunctival allergen challenge (CAC) on day 18 with short ragweed allergen. Following challenge, the mice were randomized into treatment groups (n=8) and given topical test compounds: vehicle, 0.1% Compound 1, 1% Compound 1, 1% prednisolone, or saline (BSS) twice a day for 2 days, and three times a day for an additional 4 days during allergen challenges. Challenges were conducted twice daily, on day 21 thru 24. Responses to allergen challenge were evaluated after challenges 1, 4, 6 and 8.

[3] = Free base solubilization with solubilizers; assay type: physicochemical; conditions: aqueous solubilizer (excipient) mixture, aqueous with cosolvent or surfactant or cyclodextrin; combination of 3% Glycerin, 5% PEG 400, 5% PEG-35 castor oil, 15% polysorbate 60, 4% polysorbate 80, 2% PVP K29/32, 10% propylene glycol
From the text: The free base was not soluble with various solubilizers.

[4] = tested on: patients with acute or chronic allergic conjunctivitis; test: Clinical conjunctival allergen challenge (CAC) study; assay type: in vivo, human
From the text: In a study utilizing the clinical model of the conjunctival allergen challenge (CAC) qualifying patients with acute or chronic allergic conjunctivitis were randomized to receive one of the five interventions listed below, each was given six doses at 1 drop per dose. The CAC model is a standardized clinical methodology for evaluation of novel drugs for allergy and anti-inflammatory activity, accepted by the FDA for clinical development of novel therapeutics, and has been used for development of 19 drugs currently on the market. In the CAC model, doses of allergen are administered in a controlled fashion to patients eyes in the office setting to induce a controlled allergic reaction. Drug is administered at pre-specified timepoints and signs and symptoms are collected also at pre-specified timepoints to assess efficacy.
• Composition A: 0.5% w/w Compound 1 HCl salt, 1.5% w/w glycerin, 0.01% w/w BAC in 10 mM phosphate buffer, pH 6.0. • Composition B: 1.0% w/w Compound 1 HCl salt, 1.5% w/w glycerin, 0.01% w/w BAC in 10 mM phosphate buffer, pH 6.0. • Placebo: 0.01% w/w BAC, 1.5% w/w glycerol, pH 6.0. After receiving screening and baseline CACs, patients were assigned in a masked randomization fashion to receive a study treatment at 8 hour or 15 min pre-CAC at Visits 4b and 5, respectively. […]
• Ocular Itching [Time Frame: 5, 7, and 10 minutes post allergen administration (CAC)] Ocular Itching were assessed by the subjects using a 0-4 scale (0=none to 4=severe). Average of ocular itching score over both eyes were analyzed. • Conjunctival Redness [Time Frame: 7, 15, and 20 minutes post allergen administration CAC] • Conjunctival Redness were assessed by the investigator using a 0-4 scale (0=none to 4=severe). Average of conjunctival redness score over both eyes were analyzed. • Other variables assessed for efficacy include lid swelling, chemosis, tearing, nasal symptoms, and indication of biological activity via exploratory assessment of biomarkers, and exploratory imaging of inflammation with in vivo confocal microscopy. […]

NC(=O)c1cnc(N[C@@H]2CCCC[C@@H]2N)nc1Nc1cccc(-c2ncccn2)c1 [HCl salt, 2-((1R,2S)-2-aminocyclohexylamino)-4-(3-(pyrimidin-2-yl)phenylamino)pyrimidine-5-carboxamide]
solubility (visual appearance) [1]: soluble even at a pH of 6 | behaviour as pH was increased from 6 ([1]; same formulation buffer, pH increased): precipitates formed

C[C@]12C=CC(=O)C=C1CC[C@@H]1[C@@H]2[C@@H](O)C[C@@]2(C)[C@H]1CC[C@]2(O)C(=O)CO [prednisolone, reference compound]
test days with significant decrease in the mean change in hyperemia ([2]; prednisolone (1.0%), topical, positive control): 2 of 4

NC(=O)c1cnc(N[C@@H]2CCCC[C@@H]2N)nc1Nc1cccc(-c2ncccn2)c1 [Compound 1, 2-((1R,2S)-2-aminocyclohexylamino)-4-(3-(pyrimidin-2-yl)phenylamino)pyrimidine-5-carboxamide]
solubility (visual appearance) ([1]; listed as free base): not soluble | solubility [3]: 1000 to 10000 µg/mL | test days with statistically significant reduction in overall mean hyperemia ([2]; 1% Compound 1): 3 of 4 | test days with significantly reduced mean change in hyperemia compared to saline ([2]; Compound 1 (0.1%), topical): 2 of 4 | test days with significantly reduced mean change in hyperemia (pre-versus post-CAC) compared to saline ([2]; Compound 1 (1%), topical): 4 of 4 | ocular discharge, lid swelling, or squinting ([2]; mouse, in vivo): No significant changes | relief of allergic conjunctivitis ([2]; murine model): showed efficacy | treatment emergent adverse events ([4]; Compound 1 groups): rated mild | biological effect ([4]; both concentrations (0.5%, 1%)): clear and consistent biological effect | reduction of redness, 8 hours versus 15 minutes following dosing ([4]; human, in vivo): reduced redness to a greater extent at 8 hours following dosing compared with 15 minutes
